Results taken from ChEMBL document CHEMBL1147318, “Inhibitory Substances from Myriophyllum brasiliense on Growth of Blue-Green Algae” (J Nat Prod, 1989).
Active and inactive are the calls of the source. The calls are words filed in the database; no cut-off is given here.

How the values were obtained:
Format in all cases: functional, organism-based
[1] = system: Dolichospermum flos-aquae; assay: Antialgal activity against Anabaena flos-aquae NIES 73 after 48 hrs by fluorophotometric method
Microcystis aeruginosa [2] = assay: Antialgal activity against Microcystis aeruginosa NIES 44 after 24 hrs by fluorophotometric method
Microcystis aeruginosa [3] = assay: Antialgal activity against Microcystis aeruginosa NIES 44 up to 500 uM after 24 hrs by fluorophotometric method

`O=c1c(O)c(-c2ccc(O)c(O)c2)oc2cc(O)cc(O)c12` [QUERCETIN] showed an IC50 [1] of 25 µM and an IC50 (Microcystis aeruginosa [2]) of 12 µM.
`O=C(O[C@@H]1[C@@H](OC(=O)c2cc(O)c(O)c(O)c2)[C@H](O)O[C@@H]2COC(=O)c3cc(O)c(O)c(O)c3-c3c(cc(O)c(O)c3O)C(=O)O[C@@H]12)c1cc(O)c(O)c(O)c1` was tested, and the IC50 [1] was 9.5 µM and the IC50 (Microcystis aeruginosa [2]) was 3.7 µM.
`O=C(O)c1cc(O)c(O)c(O)c1` [GALLIC ACID] gave an IC50 [1] of 33 µM and an IC50 (Microcystis aeruginosa [2]) of 19 µM.
`O=c1c(O[C@@H]2O[C@@H](CO)[C@H](O)[C@H]2O)c(-c2ccc(O)c(O)c2)oc2cc(O)cc(O)c12` [AVICULARIN] showed an IC50 [1] of 28 µM and an IC50 (Microcystis aeruginosa [2]) of 180 µM.
In the case of `C[C@@H]1O[C@@H](Oc2c(-c3ccc(O)c(O)c3)oc3cc(O)cc(O)c3c2=O)[C@H](O)[C@H](O)[C@H]1O` [QUERCITRIN], the IC50 [1] is reported as 45 µM and the IC50 (Microcystis aeruginosa [2]) is reported as 9 µM.
`O=C(O[C@@H]1O[C@@H]2COC(=O)c3cc(O)c(O)c(O)c3-c3c(cc(O)c(O)c3O)C(=O)O[C@H]2[C@H](OC(=O)c2cc(O)c(O)c(O)c2)[C@H]1OC(=O)c1cc(O)c(O)c(O)c1)c1cc(O)c(O)c(O)c1` [EUGENIIN] showed an IC50 [1] of 2.8 µM and an IC50 (Microcystis aeruginosa [2]) of 1.6 µM.
With `OC[C@H]1OC(O)[C@H](O)[C@@H](O)[C@@H]1O` (stereo partly drawn) the Activity (Microcystis aeruginosa [3]) was “inactive”.
